Here are results for one molecule from patent US12133855B2, “Lipid-like nanocomplexes and uses thereof” (Trustees of Tufts College, priority 2018, dated 2024).

Each structure is given as a SMILES string.

Data set [1] in a line: Thiol-triggered Nile red release. The data set is classed as physicochemical. On the procedure: (§1) Lipidoids were fabricated into nanoparticles for all delivery applications. Briefly, lipidoids were mixed with sodium acetate buffer (25 mM, pH 5.2), sonicated for 30 min in an ultrasonic bath, followed by another 30 min of vigorous vortexing. The as-prepared blank LNPs were stored at 4° C. For Cy5-RNA/LNP, mRNA/LNP and protein/LNP complexation, blank lipidoid nanoparticles were mixed with RNA molecules or (−30)GFP-Cre protein in PBS buffer (pH 7.4) following our previously reported procedures and incubated at room temperature for another 30 min before use. Typical procedures for Nile red encapsulation are as follows: 5 μL of Nile red stock solution in acetone was added into an empty vial, which was then placed in a vacuum oven to completely remove the organic solvent. Then, a predetermined amount of blank LNP stock solution (1.0 mg/mL) was added into the vial. The mixture was sonicated for 40 min in an ultrasonic bath and stirred overnight at room temperature. The final concentration of Nile red was adjusted to 6.6×10-7 mol L-1 and 6×10-7 mol L-1 for thiol triggered release study and cell incubation, respectively, by diluting with PBS as necessary. Typical procedures for CPT and DiO/DiI FRET pair encapsulation are as follows: 100 μL of DiO/DiI stock solution in MeOH was charged into an empty vial and placed in a vacuum oven to remove the organic solvent. Lipidoids (2.0 mg) in 200 μL of methanol were then added into the vial and stirred to produce a homogeneous solution. Then, 600 μL of DI water was added dropwise in 10 min with continuous stirring. The resulting mixture was dialyzed against DI water for 24 h (Thermo Scientific Slide-A-Lyzer Dialysis Cassette, MWCO=3500 Da), and fresh water was replaced every 4 h. Typical procedures for encapsulation of calcein and doxonorubicin hydrochloride are as follows: precalculated amounts of calcein or Dox stock solutions in DI water was diluted into 800 μL with sodium acetate buffer, and used as the selective solvents to trigger the self-assembly process of lipidoids in methanol (5 mg/mL), respectively. The unloaded calcein or Dox was removed by dialysis against DI water (Thermo Scientific Slide-A-Lyzer Dialysis Cassette, MWCO=3500 Da).
The reduction triggered release behavior of encapsulated cargoes was then studied by using nile red loaded 75-OCholB LNPs (NR/75-OCholB), taking advantage of the microenvironmental polarity sensitive photophysical property of nile red. […] In the meantime, 20 μM Cysteine treated NR/75-OCholB released 4.2% of nile red in 2 h and 6.9% in 6 h, which could be ascribed to the previously discussed minimal structural and morphological changes of the LNPs under the stimulus of low concentration of thiols (FIGS. 11A and 11C). […] Furthermore, the binding affinity of OCholB LNPs with negatively charged macromolecular cargo, Cy5-RNA, was examined. […] Additionally, similar to the responsiveness study, it is reasonable that the cargo release profiles could depend on both of the species and concentrations of the thiols-containing regents. Above all, OCholB LNPs loaded with cargoes are relatively stable in the presence of low concentration of thiols and the triggered release behaviors of cargo molecules with different physicochemical properties (hydrophobic/hydrophilic, low/high molecular weight, etc.) could be expected.

Another data set relates to Cy5-RNA. As to the kind of experiment: RNA binding test of lipidoid nanoparticles. It is filed as physicochemical. The procedure: as §1, with “The unloaded calcein or Dox was removed by dialysis against DI water (Thermo Scientific Slide-A-Lyzer Dialysis Cassette, MWCO=3500 Da).” left out
For the next data set, the system named is HeLa cells. As to the kind of experiment: Internalization of calcein loaded nanoparticles. It is filed as cell-based. The conditions noted are these: 8 h of exposure. On the procedure: The internalization kinetics and efficiencies of OCholB LNPs were then studied using NR loaded LNPs and HeLa cells. […] Next, all of the NR delivery efficiencies of eight OCholB LNPs were determined after 8 h of exposure. […] Representative fluorescent images of NR/LNPs (NR/75-OCholB, NR/76-OCholB and NR/77-OCholB) treated HeLa cells are shown in FIG. 12D, from which it is easily observed that NR was delivered into the cells and mainly distributed in cytoplasm, by OCholB LNPs. Next, the internalization of negatively charged hydrophilic fluorescent dye, calcein, was studied. […] Next, the use of OCholB LNPs for the intracellular delivery of macromolecular cargo was explored, using fluorescent recombinant (−30)GFP-Cre protein and HeLa-DsRed cells as the model system. […] Delivery efficiency was tested at a range of (−30)GFP-Cre protein concentrations (25, 50 and 100 nM), with a consistent lipid/protein ratio (i.e., delivery with the final lipid concentration of 1.7, 3.3, and 6.6 μg mL^−1 respectively). 33.2%, 43.8% and 74% of GFP positive (GFP^+) cells were recorded for (−30)GFP-Cre/Lpf2k treated cells with the concentration of (−30)GFP-Cre 25 nM, 50 nM and 100 nM, respectively. […]

Where [2] appears, read: 10/1 weight ratio, DTT (10 mM, 24 h) treated nanoparticles.

Turning to `CCN(CC)CCN(CCC(=O)OCCSSCCNC(=O)OC1CCC2(C)C(=CCC3C2CCC2(C)C(C(C)CCCC(C)C)CCC32)C1)CCC(=O)OCCSSCCNC(=O)OC1CCC2(C)C(=CCC3C2CCC2(C)C(C(C)CCCC(C)C)CCC32)C1` (stereo not drawn) [Lipidoid 75-OCholB], the “encapsulated nile red released” value in data set [1] (20 μM Cysteine, 2 h) is 4.2%; in data set [1] (20 μM Cysteine, 6 h), 6.9%; in data set [1] (1 mM DTT, 2 h), 33.5%; in data set [1] (1 mM DTT, 6 h), 44.0%; in data set [1] (5 mM DTT, 2 h), 61.7%; in data set [1] (5 mM DTT, 6 h), 84.2%. Also, the “encapsulated nile red released” value turned out to be 67.4% in data set [1] (10 mM DTT, 2 h) and 86.4% in data set [1] (10 mM DTT, 6 h). Besides, in the data set on Cy5-RNA (10/1 weight ratio lipidoid/Cy5-RNA), the “RNA molecules complexed with LNPs” value was found to be 82.9%. The RNA binding efficacy with Cy5-RNA (setting [2]) is listed as 15.5%. The “unbound Cy5-RNA” value in the data set with Cy5-RNA (setting [2]) is 84.5%. Besides, the “mean fluorescent intensity vs free calcein-treated cells” value with HeLa cells is about 9.4 folds.
